These results are taken from ChEMBL document CHEMBL5634150, “Design, synthesis and biological evaluation of novel dihydroquinolin-4(1H)-one derivatives as novel tubulin polymerization inhibitors” (Eur J Med Chem, 2023).

A short description of data set [1]: Metabolic stability in mouse liver microsomes assessed as intrinsic clearance at 100 uM measure upto 60 mins in presence of NADPH by LC-MS/MS analysis. It counts as ADME, Microsome. Particulars: 1 h. (In general: Liver microsomes are a subcellular fraction often used to study metabolism.)
A short description of data set [2]: Toxicity in mouse assessed as effect on heart at 20 mg/kg by H and E staining based microscopic analysis. It counts as organism-based. Particulars: in vivo.
The next data set deals with Cell membrane. The data set is described as follows: Induction of mitochondrial membrane depolarization in human K562 cells assessed as decrease in red fluorescence intensity at incubated for 48 hrs by JC-1 staining based flow cytometry. The note with it: dose 1.5-6 nM. It counts as cell membranes. For orientation: Flow cytometry measures light scatter and fluorescence of single cells or particles in a stream.

The subject of data set [3] is K562. The data set is described as follows: Induction of apoptosis in human K562 cells assessed as downregulation of bcl-xl level at upto 6 nM measured after 48 hrs by Western blot analysis. It counts as functional, cell-based. Background: In western blotting, separated proteins are transferred to a membrane and probed.
The next data set deals with HUVEC. The data set is described as follows: Anti-angiogenesis activity in HUVEC cells at 1.5 to 6 nM measured after 24 hrs by wound healing assay. The note with it: Homo sapiens, dose 1.5-6 nM. It counts as functional, cell-based.
The subject of data set [4] is K562. The data set is described as follows: Induction of apoptosis in human K562 cells at 1.5 nM measured after 48 hrs by Annexin V-FITC/7-AAD staining based flow cytometric analysis relative to control. It counts as functional.
Data set [5] deals with K562. In words: Induction of cell cycle arrest in human K562 cells assessed as accumulation of cells at S phase at 1.5 nM incubated overnight by PI staining based flow cytometry analysis (reference value: 15.98%). It counts as functional.
Another data set has as its system MDA-MB-231. In words: Inhibition of cell migration in human MDA-MB-231 cells measured after 48 hrs by crystal violet staining microscopy based transwell migration assay. It counts as functional. Particulars: dose 1.5-6 nM.
A further data set concerns the target Tubulin. The data set is described as follows: (§1) Inhibition of tubulin polymerization (unknown origin) preincubated for 5 mins and measured every 5 mins for 60 mins by absorbance based analysis. It counts as protein-complex assay, Homo sapiens.
Another data set has as its target Tubulin (Homo sapiens) (UniProt P68371+Q9H4B7+P0DPH7+P68366+Q13509+Q71U36+P04350+Q3ZCM7+P07437+P68363+Q9BQE3+Q6PEY2+Q13885+Q9BVA1+Q9BUF5). Described as §1. It counts as protein-complex assay. The note with it: dose 5-10 µM, time 65.0 min.
The subject of data set [6] is K562. In words: Induction of apoptosis in human K562 cells assessed as increase in bad level at upto 6 nM measured after 48 hrs by Western blot analysis. It counts as functional, cell-based.
The test system of the next data set is H22. The data set is described as follows: Antitumor activity against mouse H22 cells allografted in mouse model assessed as inhibition of tumor volume administered as iv dose for once daily for 3 weeks. It counts as functional, organism-based. The note with it: dose 10-20 mg/kg.
A short description of data set [7]: Toxicity in mouse assessed as effect on lung at 20 mg/kg by H and E staining based microscopic analysis. It counts as organism-based. The note with it: in vivo.
For data set [8], the system named is K562. In words: Induction of cell cycle arrest in human K562 cells assessed as accumulation of cells at S phase at 6 nM incubated overnight by PI staining based flow cytometry analysis (reference value: 15.98%). It counts as functional.
Data set [9] is described as follows: Resistance index, ratio of IC50 for antiproliferative activity against human A549/Taxol cells to IC50 for antiproliferative activity against human A549 cells. It counts as functional.
A further data set concerns A549. The data set is described as follows: Antiproliferative activity against human A549 cells assessed as inhibition of cell growth at 0.01 uM measured after 72 hrs by MTT assay relative to control. It counts as functional.
For data set [10], the system named is K562. In words: Induction of cell cycle arrest in human K562 cells assessed as accumulation of cells at G2/M phase at 1.5 nM incubated overnight by PI staining based flow cytometry analysis (reference value: 5.57%). It counts as functional.

Activity calls are given as the source filed them. The calls are words filed in the database; no cut-off is given here.

The term inhibition denotes the relative decrease from the control value, in per cent. Usually IC50 stands for the concentration at which inhibition is half-maximal.

With `CCn1ccc2cc(N3CCC(=O)c4c3cc(OC)c(OC)c4OC)ccc21`, the CLH in data set [1] turned out to be 129 µL/min/mg. The Activity result was “Non-Toxic” in data set [2]; “Dose-Dependent Effect” in the data set on Cell membrane; 11.44% with K562 [4]; 22.58% in the data set on K562 [5]; “Dose-Dependent Effect” with H22; “Non-Toxic” in data set [7]. Further, the Activity in the data set with K562 [8] is listed as 30.18%; in the data set on K562 [10], 10.62%. In addition, the outcome with K562 [3], in the data set with HUVEC and with K562 [6] was Active. In addition, the inhibition entry in the data set with MDA-MB-231 and on Tubulin (Homo sapiens) was “Dose-Dependent Effect” in each case. The compound further showed an IC50 against Tubulin of 3.06 µM. In data set [9], the “Ratio IC50” value came out at 5.38. The inhibition at 0.01 µM in the data set on A549 was 73.6%.
